# Source: article PMC5854716, “Synthesis, molecular docking, ctDNA interaction, DFT calculation and evaluation of antiproliferative and anti-Toxoplasma gondii activities of 2,4-diaminotriazine-thiazole derivatives” (Medicinal Chemistry Research, 2018)
# Tests used:
# [1] = system: human breast carcinoma MCF-7 cells; assay: In vitro antiproliferative assay (SRB), MCF-7; format: cell-based; details: mean ± SD; for IC50 MCF-7: 72 h exposure; for IC50: Homo sapiens, MCF7, 72 h exposure
# Method: (§1) Biphenotypic B myelomonocytic leukemia MV4-11, human lung carcinoma A549, human breast carcinoma MCF-7, and normal mouse fibroblast BALB/3T3 cells were obtained from American Type Culture Collection (Rockville, Maryland, USA). All the cell lines are being maintained at the Institute of Immunology and Experimental Therapy, Wroclaw, Poland. MV4-11 cells were cultured in RPMI 1640 medium (Gibco, UK) with 2 mM L-glutamine adjusted to contain 1.0 mM sodium pyruvate, and 10% fetal bovine serum (FBS) (all from Sigma-Aldrich, Germany). A549 cells were cultured in RPMI 1640+ Opti-MEM (1:1) (both from Gibco, UK), MCF-7 cells in Eagle medium (IIET, Wroclaw, Poland), BALB/3T3 in Dulbecco medium (IIET, Poland) supplemented with 2 mM L-glutamine and 1.0 mM sodium pyruvate, 10% fetal bovine serum (all from Sigma-Aldrich, Germany). The MCF-7 cell culture was supplemented with 0.8 mg/l of insulin (Sigma-Aldrich, Germany). All culture media were supplemented with 100 units/ml penicillin, and 100 µg/ml streptomycin (both from Polfa Tarchomin S.A., Poland). All cell lines were grown at 37 °C with 5% CO2 humidified atmosphere (Łączkowski et al. [2014], [2016a]). Prior to usage, the compounds were dissolved in DMSO and culture medium (1: 9) to the concentration of 1 mg/ml, and subsequently diluted in culture medium to reach the required concentrations (0.1, 1, 10, and 100 µg/ml) (Łączkowski et al. [2014], [2016a]). Twenty-four hours prior to the addition of the tested compounds, the cells counted using Burker hemocytometer were plated in 96-well plates (Sarstedt, Germany) at a density of 1 × 10^4 cells per well. The assay was performed after 72 h of exposure to varying concentrations of the tested agents. The in vitro cytotoxic effect of all agents was examined using the SRB assay for adherent cells (A549, MCF-7, and BALB/3T3) or MTT assay for leukemia cells (MV4-11) as described previously. […] Each compound in each concentration was tested in triplicate in a single experiment, which was repeated 3–7 times (Rubinstein et al. [1990]; Bramson et al. [1995]). Cells were attached to the bottom of plastic wells by fixing them with cold 50% TCA (trichloroacetic acid, POCH, Gliwice, Poland) on top of the culture medium in each well. The plates were incubated at 4 °C for 1 h and then washed five times with tap water. The cellular material fixed with TCA was stained with 0.1% sulforhodamine B (SRB, Sigma-Aldrich, Germany) and dissolved in 1% acetic acid (POCH, Gliwice, Poland) for 30 min. Unbound dye was removed by rinsing (4×) in 1% acetic acid. The protein-bound dye was extracted with 10 mM unbuffered Tris base (Sigma-Aldrich, Germany) for determination of the optical density (λ = 540 nm) in a computer-interfaced, 96-well Synergy H4 (BioTek Instruments USA) photometer microtiter plate reader (Sidoryk et al. [2012]).
# [2] = system: human lung carcinoma A549 cells; assay: In vitro antiproliferative assay (SRB), A549; format: cell-based; details: mean ± SD; for IC50 A549: 72 h exposure; for IC50: Homo sapiens, A549, 72 h exposure
# Method: as §1
# [3] = system: normal mouse fibroblast Balb/3T3 cells; assay: In vitro cytotoxicity (SRB), Balb/3T3; format: cell-based; details: mean ± SD; for IC50 Balb/3T3: 72 h exposure; for IC50: Mus musculus, BALB/3T3, 72 h exposure
# Method: as §1
# [4] = Cell viability assay (MTT), L929; format: cell-based, Mus musculus; details: mouse, L929 fibroblast cells
# Procedure, shortened: (§2)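 L929 and VERO cells seeded at 1.0 × 10^4/well, attached 24 h, then exposed 24 h to compounds at 0.9–125.00 μg/ml (from DMSO stock). MTT (1 mg/ml) added for 2 h at 37 °C, formazan dissolved in DMSO, OD read at 550 nm. Viability expressed as percentage of 2.5% DMSO-treated controls; triplicate.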
# [5] = Cell viability assay (MTT), VERO; format: cell-based, Cercopithecus aethiops; details: African green monkey (Cercopithecus aethiops), VERO kidney epithelial cells
# Procedure, shortened: as §2
Structure (SMILES),IC50 MCF-7 [1],IC50 A549 [2],IC50 [1],IC50 [2],IC50 Balb/3T3 [3],IC50 [3],"viability at 24 h, 0.9 µg/ml [4]","viability at 24 h, 1.8 µg/ml [4]","viability at 24 h, 3.9 µg/ml [4]","viability at 24 h, 7.8 µg/ml [4]","viability at 24 h, 15.6 µg/ml [4]","viability at 24 h, 31.2 µg/ml [4]","viability at 24 h, 62.5 µg/ml [4]","viability at 24 h, 0.9 µg/ml [5]","viability at 24 h, 1.8 µg/ml [5]","viability at 24 h, 3.9 µg/ml [5]","viability at 24 h, 7.8 µg/ml [5]","viability at 24 h, 15.6 µg/ml [5]","viability at 24 h, 31.2 µg/ml [5]","viability at 24 h, 62.5 µg/ml [5]",also measured
"C/C(=N\Nc1nc(-c2cc3ccccc3oc2=O)cs1)c1ccc(Nc2nc(N)nc(N)n2)cc1 [Compound 4f, (E)-3-(2-(2-(1-(4-(4,6-diamino-1,3,5-triazin-2-yloamino)phenyl)ethylidene)hydrazinyl)thiazol-4-yl)-2H-chromen-2-on]",─,no antiproliferative activity,–,–,>100 µg/mL,–,–,–,–,–,–,–,–,–,–,–,–,–,–,–,–
"CC(=O)Nc1ccc(-c2csc(N/N=C(\C)c3ccc(Nc4nc(N)nc(N)n4)cc3)n2)cc1 [Compound 4g, (E)-N^2-(4-(2-(2-(1-(4-(4,6-diamino-1,3,5-triazin-2-yloamino)phenyl)ethylidene)hydraziny)thiazol-4-yl)phenyl)-acetamide]",6.67 ± 2.958 µg/mL,no antiproliferative activity,–,–,>100 µg/mL,–,–,–,–,–,–,–,–,–,–,–,–,–,–,–,–
"C/C(=N\Nc1nc(-c2ccc3[nH]c(=O)oc3c2)cs1)c1ccc(Nc2nc(N)nc(N)n2)cc1 [Compound 4l, (E)-6-(2-(2-(1-(4-(4,6-diamino-1,3,5-triazin-2-yloamino)phenyl)ethylidene)hydrazinyl)thiazol-4-yl)-benzo[d]oxazol-2(3H)-on]",–,–,–,–,>100 µg/mL,–,–,–,–,–,–,–,–,–,–,–,–,–,–,–,–

# Further lines, with some results ahead:
IC50 MCF-7 [1],IC50 A549 [2],IC50 [1],IC50 [2],Structure (SMILES),IC50 Balb/3T3 [3],IC50 [3],"viability at 24 h, 0.9 µg/ml [4]","viability at 24 h, 1.8 µg/ml [4]","viability at 24 h, 3.9 µg/ml [4]","viability at 24 h, 7.8 µg/ml [4]","viability at 24 h, 15.6 µg/ml [4]","viability at 24 h, 31.2 µg/ml [4]","viability at 24 h, 62.5 µg/ml [4]","viability at 24 h, 0.9 µg/ml [5]","viability at 24 h, 1.8 µg/ml [5]","viability at 24 h, 3.9 µg/ml [5]","viability at 24 h, 7.8 µg/ml [5]","viability at 24 h, 15.6 µg/ml [5]","viability at 24 h, 31.2 µg/ml [5]","viability at 24 h, 62.5 µg/ml [5]",also measured
5.95 ± 2.165 µg/mL,no antiproliferative activity,–,–,"C/C(=N\Nc1nc(-c2ccc(NS(C)(=O)=O)cc2)cs1)c1ccc(Nc2nc(N)nc(N)n2)cc1 [Compound 4j, (E)-N-(4-(2-(2-(1-(4-(4,6-diamino-1,3,5-triazin-2-yloamino)phenyl)ethylidene)hydrazinyl)thiazol-4-yl)phenyl)-methanesulfonamide]",>100 µg/mL,–,–,–,–,–,–,–,–,–,–,–,–,–,–,–,–
–,–,3.69 ± 1.64 µg/mL,57.5 ± 20.7 µg/mL,"C/C(=N\Nc1nc(-c2ccc(Cl)c(Cl)c2)cs1)c1ccc(Nc2nc(N)nc(N)n2)cc1 [Compound 4i, (E)-N^2-(4-(1-(2-(4-(3,4-dichlorophenyl)-1,3-thiazol-2-yl)hydrazinylidene)ethyl)phenyl)-1,3,5-triazine-2,4,6-triamine]",–,> 100 µg/mL,101%,97.9%,96.1%,100%,98.1%,108%,100%,97.5%,93.7%,93.9%,92.6%,97.3%,112%,111%,–
–,–,8.72 ± 5.28 µg/mL,33.6 ± 2.42 µg/mL,"C/C(=N\Nc1nc(-c2ccc([N+](=O)[O-])cc2)cs1)c1ccc(Nc2nc(N)nc(N)n2)cc1 [Compound 4h, (E)-N^2-(4-(1-(2-(4-(4-nitrophenyl)-1,3-thiazol-2-yl)hydrazinylidene)ethyl)phenyl)-1,3,5-triazine-2,4,6-triamine]",–,> 100 µg/mL,100%,98.5%,100%,105%,105%,114%,118%,104%,99.4%,106%,109%,110%,109%,109%,"viability at 24 h, 125 µg/ml ([4]; 125.0 µg/ml): 104%; viability at 24 h, 125 µg/ml ([5]; 125.0 µg/ml): 104%"
